Test results from US20170190671A1, “BIS(ARYL)CATECHOL DERIVATIVES AS HERBICIDES” (E I DU PONT DE NEMOURS AND COMPANY, priority 2014, published 2017).

Tests used:
Assay in all cases: Test E preemergence
Format in all cases: in vivo
Details in all cases: scale 0 to 100
[1] = system: sandbur (southern sandbur, Cenchrus echinatus)
Text: (§1) Seeds of plant species selected from corn (Zea mays), soybean (Glycine max), velvetleaf (Abutilon theophrasti), cocklebur (common cocklebur, Xanthium strumarium), lambsquarters (Chenopodium album), wild poinsettia (Euphorbia heterophylla), palmer pigweed (Amaranthus palmeri), waterhemp (common waterhemp, Amaranthus rudis), surinam grass (Brachiaria decumbens), large (Lg) crabgrass (Digitaria sanguinalis), Brazilian crabgrass (Digitaria horizontalis), fall panicum (Panicum dichotomiflorum), giant foxtail (Setaria faberii), green foxtail (Setaria viridis), goosegrass (Eleusine indica), johnsongrass (Sorghum halepense), ragweed (common ragweed, Ambrosia elatior), barnyardgrass (Echinochloa crus-galli), sandbur (southern sandbur, Cenchrus echinatus), arrowleaf sida (Sida rhombifolia), Italian ryegrass (Lolium multiflorum), dayflower (Virginia (VA) dayflower, Commelina virginica), field bindweed (Convolvulus arvensis), morningglory (Ipomoea coccinea), nightshade (eastern black nightshade, Solanum ptycanthum), kochia (Kochia scoparia), yellow nutsedge (Cyperus esculentus), horseweed (Conyza canadensis), and hairy beggarticks (Bidens pilosa), were planted into a silt loam soil and treated preemergence with test chemicals formulated in a non-phytotoxic solvent mixture which included a surfactant.
(§2) At the same time, plants from these crop and weed species and also waterhemp_RES1, (ALS & Triazine resistant common waterhemp, Amaranthus rudis), and waterhemp_RES2, (ALS & HPPD resistant common waterhemp, Amaranthus rudis) were planted in pots containing Redi-Earth® planting medium (Scotts Company, 14111 Scottslawn Road, Marysville, Ohio 43041) comprising spaghnum peat moss, vermiculite, wetting agent and starter nutrients were treated with postemergence applications of test chemicals formulated in the same manner. Plants ranged in height from 2 to 18 cm for postemergence treatments (1- to 4-leaf stage). Treated plants and controls were maintained in a greenhouse for 14 to 21 days, after which time all species were compared to controls and visually evaluated. Plant response ratings, summarized in Table E, are based on a scale of 0 to 100 where 0 is no effect and 100 is complete control. A dash (-) response means no test result.

[2] = system: morningglory (Ipomoea coccinea)
Text: as §1, §2

[3] = system: lambsquarters (Chenopodium album)
Text: as §1, §2

[4] = system: waterhemp (common waterhemp, Amaranthus rudis)
Text: as §1, §2

[5] = system: large (Lg) crabgrass (Digitaria sanguinalis)
Text: as §1, §2

[6] = system: yellow nutsedge (Cyperus esculentus)
Text: as §1, §2

[7] = system: barnyardgrass (Echinochloa crus-galli)
Text: as §1, §2

[8] = system: goosegrass (Eleusine indica)
Text: as §1, §2

[9] = system: dayflower (Virginia (VA) dayflower, Commelina virginica)
Text: as §1, §2

[10] = system: nightshade (eastern black nightshade, Solanum ptycanthum)
Text: as §1, §2

[11] = system: palmer pigweed (Amaranthus palmeri)
Text: as §1, §2

[12] = system: corn (Zea mays)
Text: as §1, §2

[13] = system: hairy beggarticks (Bidens pilosa)
Text: as §1, §2

[14] = system: soybean (Glycine max)
Text: as §1, §2

[15] = system: arrowleaf sida (Sida rhombifolia)
Text: as §1, §2

[16] = system: Surinam grass (Brachiaria decumbens)
Text: as §1, §2

[17] = system: green foxtail (Setaria viridis)
Text: as §1, §2

[18] = system: fall panicum (Panicum dichotomiflorum)
Text: as §1, §2

[19] = system: Italian ryegrass (Lolium multiflorum)
Text: as §1, §2

[20] = system: giant foxtail (Setaria faberii)
Text: as §1, §2

[21] = system: ragweed (common ragweed, Ambrosia elatior)
Text: as §1, §2

N#Cc1cccc(Oc2ncc(Cl)cn2)c1Oc1ncc(C(F)(F)F)cn1 [Compound 38, 3-[(5-chloro-2-pyrimidinyl)oxy]-2-[[5-(trifluoromethyl)-2-pyrimidinyl]oxy]-benzonitrile]
Plant response rating, Sandbur ([1]; 16 g ai/ha): 0
Plant response rating, Sandbur ([1]; 31 g ai/ha): 0
Plant response rating, Sandbur ([1]; 62 g ai/ha): 35
Plant response rating, Sandbur ([1]; 125 g ai/ha): 80
Plant response rating, Morningglory ([2]; 16 g ai/ha): 0
Plant response rating, Morningglory ([2]; 31 g ai/ha): 0
Plant response rating, Morningglory ([2]; 62 g ai/ha): 50
Plant response rating, Morningglory ([2]; 125 g ai/ha): 35
Plant response rating, Lambsquarters ([3]; 16 g ai/ha): 98
Plant response rating, Lambsquarters ([3]; 31 g ai/ha): 100
Plant response rating, Lambsquarters ([3]; 62 g ai/ha): 100
Plant response rating, Lambsquarters ([3]; 125 g ai/ha): 100
Plant response rating, Waterhemp ([4]; 16 g ai/ha): 50
Plant response rating, Waterhemp ([4]; 31 g ai/ha): 98
Plant response rating, Waterhemp ([4]; 62 g ai/ha): 98
Plant response rating, Waterhemp ([4]; 125 g ai/ha): 100
Plant response rating, Crabgrass, Large ([5]; 16 g ai/ha): 50
Plant response rating, Crabgrass, Large ([5]; 31 g ai/ha): 75
Plant response rating, Crabgrass, Large ([5]; 62 g ai/ha): 100
Plant response rating, Crabgrass, Large ([5]; 125 g ai/ha): 100
Plant response rating, Nutsedge, Yellow ([6]; 16 g ai/ha): 0
Plant response rating, Nutsedge, Yellow ([6]; 31 g ai/ha): 0
Plant response rating, Nutsedge, Yellow ([6]; 62 g ai/ha): 20
Plant response rating, Nutsedge, Yellow ([6]; 125 g ai/ha): 65
Plant response rating, Barnyardgrass ([7]; 16 g ai/ha): 0
Plant response rating, Barnyardgrass ([7]; 31 g ai/ha): 10
Plant response rating, Barnyardgrass ([7]; 62 g ai/ha): 70
Plant response rating, Barnyardgrass ([7]; 125 g ai/ha): 90
Plant response rating, Goosegrass ([8]; 16 g ai/ha): 30
Plant response rating, Goosegrass ([8]; 31 g ai/ha): 50
Plant response rating, Goosegrass ([8]; 62 g ai/ha): 90
Plant response rating, Goosegrass ([8]; 125 g ai/ha): 100
Plant response rating, Dayflower, VA ([9]; 16 g ai/ha): 0
Plant response rating, Dayflower, VA ([9]; 31 g ai/ha): 0
Plant response rating, Dayflower, VA ([9]; 62 g ai/ha): 20
Plant response rating, Dayflower, VA ([9]; 125 g ai/ha): 60
Plant response rating, Nightshade ([10]; 16 g ai/ha): 5
Plant response rating, Nightshade ([10]; 31 g ai/ha): 95
Plant response rating, Nightshade ([10]; 62 g ai/ha): 98
Plant response rating, Nightshade ([10]; 125 g ai/ha): 100
Plant response rating, Pigweed, Palmer ([11]; 16 g ai/ha): 60
Plant response rating, Pigweed, Palmer ([11]; 31 g ai/ha): 100
Plant response rating, Pigweed, Palmer ([11]; 62 g ai/ha): 98
Plant response rating, Pigweed, Palmer ([11]; 125 g ai/ha): 100
Plant response rating, Corn ([12]; 16 g ai/ha): 0
Plant response rating, Corn ([12]; 31 g ai/ha): 0
Plant response rating, Corn ([12]; 62 g ai/ha): 35
Plant response rating, Corn ([12]; 125 g ai/ha): 50
Plant response rating, Beggarticks ([13]; 16 g ai/ha): 0
Plant response rating, Beggarticks ([13]; 31 g ai/ha): 0
Plant response rating, Beggarticks ([13]; 62 g ai/ha): 0
Plant response rating, Beggarticks ([13]; 125 g ai/ha): 35
Plant response rating, Soybean ([14]; 16 g ai/ha): 15
Plant response rating, Soybean ([14]; 31 g ai/ha): 15
Plant response rating, Soybean ([14]; 62 g ai/ha): 95
Plant response rating, Soybean ([14]; 125 g ai/ha): 80
Plant response rating, Arrowleaf Sida ([15]; 16 g ai/ha): 60
Plant response rating, Arrowleaf Sida ([15]; 31 g ai/ha): 50
Plant response rating, Arrowleaf Sida ([15]; 62 g ai/ha): 80
Plant response rating, Arrowleaf Sida ([15]; 125 g ai/ha): 100
Plant response rating, Surinam Grass ([16]; 16 g ai/ha): 0
Plant response rating, Surinam Grass ([16]; 31 g ai/ha): 0
Plant response rating, Surinam Grass ([16]; 62 g ai/ha): 15
Plant response rating, Surinam Grass ([16]; 125 g ai/ha): 40
Plant response rating, Foxtail, Green ([17]; 16 g ai/ha): 5
Plant response rating, Foxtail, Green ([17]; 31 g ai/ha): 30
Plant response rating, Foxtail, Green ([17]; 62 g ai/ha): 100
Plant response rating, Foxtail, Green ([17]; 125 g ai/ha): 100
Plant response rating, Panicum, Fall ([18]; 16 g ai/ha): 0
Plant response rating, Panicum, Fall ([18]; 31 g ai/ha): 98
Plant response rating, Panicum, Fall ([18]; 62 g ai/ha): 100
Plant response rating, Panicum, Fall ([18]; 125 g ai/ha): 100
Plant response rating, Ryegrass, Italian ([19]; 16 g ai/ha): 0
Plant response rating, Ryegrass, Italian ([19]; 31 g ai/ha): 25
Plant response rating, Ryegrass, Italian ([19]; 62 g ai/ha): 65
Plant response rating, Ryegrass, Italian ([19]; 125 g ai/ha): 80
Plant response rating, Foxtail, Giant ([20]; 16 g ai/ha): 5
Plant response rating, Foxtail, Giant ([20]; 31 g ai/ha): 70
Plant response rating, Foxtail, Giant ([20]; 62 g ai/ha): 100
Plant response rating, Foxtail, Giant ([20]; 125 g ai/ha): 100
Plant response rating, Ragweed ([21]; 16 g ai/ha): 40
Plant response rating, Ragweed ([21]; 31 g ai/ha): 40
Plant response rating, Ragweed ([21]; 62 g ai/ha): 60
Plant response rating, Ragweed ([21]; 125 g ai/ha): 70
